Experimental data published in patent publication US20160067247A1, “NOVEL USE” (GlaxoSmithKline Intellectual Property (No.2) Limited, priority 2012, published 2016).
Where two headings read alike, the source gives them in different places.

Test system: AKT phosphorylation (pAKT) at position Ser473
Test: FBS stimulated AKT (S473) phosphorylation in primary human lung fibroblasts, MSD assay (Example 2)
Format: cell-based
Settings: Fibroblast, 0.5 h, 20% FBS 30 minute, read-out: mean pIC50, AKT (S473) phosphorylation (converted)
Protocol: Primary human fibroblasts were isolated by explant culture from non-IPF lung tissue, obtained post mortem following sudden trauma, and IPF lung tissue obtained from the lungs of IPF patients which were removed for transplantation or biopsy. Explants were cultured in DMEM containing high glucose and sodium pyruvate (PAA laboratories, catalogue #E15-011) with penicillin/streptomycin (Sigma #P4333), amphotericin B (Sigma #A2942), L-glutamine (Gibco #25030) and 20% FBS (foetal bovine serum, Lonza, catalogue #14-801F, Lot #1SB003) at 37° C., 100% humidity, 10% CO2. Cells were designated non-IPF (UCL marked 0110 and 0610) and IPF (UCL marked 0207, 0208, 0308, 0507 and 0508) based on medical diagnosis.
Human lung primary fibroblast cell lines were cultured in DMEM containing high glucose and sodium pyruvate supplemented with L-glutamine, penicillin/streptomycin and 10% FBS (complete DMEM) at 37° C., 100% humidity, 10% CO2. Cells were split into T175 flasks (NUNC #159910) 2 to 3 days prior to assay set-up at a density which yields approximately 70-80% confluence at time of harvest for assay. Cells were harvested using 0.25% trypsin-EDTA (Gibco #25300), washed and re-suspended in complete DMEM. Cell counts were performed on the cell suspension using a Handheld Automated Cell Counter (Millipore #PHCC00000) with 60 μm sensors (Millipore #PHCC60050). […]

COc1ncc(-c2ccc3nccc(-c4ccnnc4)c3c2)cc1NS(=O)(=O)c1ccc(F)cc1F [2,4-difluoro-N-{2-(methyloxy)-5-[4-(4-pyridazinyl)-6-quinolinyl]-3-pyridinyl}benzenesulfonamide]
IC50 (IPF fibroblasts, n=5 cell lines (+/-0.1 SEM)): 1.58 nM
IC50 (primary human non-IPF fibroblasts, n=2 lines (range 8.8-9.4)): 0.794 nM
